This passage reports IC50 results from US9458140B2, “Furanone compounds as kinase inhibitors” (Eternity Bioscience Inc., priority 2013, dated 2016).

One assay deals with BRAF^V600E (Homo sapiens (Human), UniProt P15056, V600E). Description: BRAF^V600E enzymatic activity assay (LanthaScreen kinase assay). The following applies: LanthaScreen TR-FRET, ATP 2 μM, 60 minutes, room temperature; read-out: BRAF^V600E Lantha IC50. Type of assay: biochemical. As to the method: BRAF^V600E enzymatic activity assay: The BRAF^V600E enzymatic assay was performed using a LanthaScreen kinase assay kit purchased from Life Technologies (Grand Island, N.Y.). The assay was conducted according to the procedure provided in the assay kit. […] The final reaction volume for each reaction was 10 μl. The reaction was stopped by addition of 10 μl of TR-FRET dilution buffer kinase supplemented with kinase quench buffer (10 mM final) and Tb-anti-pMAP2K1 (2 nM final). […] IC50 value was calculated using appropriate programs in GraphPad Prism by plotting the logarithm of the concentration versus percent inhibition.
Chain of BRAF^V600E (P15056 whole entry V600E): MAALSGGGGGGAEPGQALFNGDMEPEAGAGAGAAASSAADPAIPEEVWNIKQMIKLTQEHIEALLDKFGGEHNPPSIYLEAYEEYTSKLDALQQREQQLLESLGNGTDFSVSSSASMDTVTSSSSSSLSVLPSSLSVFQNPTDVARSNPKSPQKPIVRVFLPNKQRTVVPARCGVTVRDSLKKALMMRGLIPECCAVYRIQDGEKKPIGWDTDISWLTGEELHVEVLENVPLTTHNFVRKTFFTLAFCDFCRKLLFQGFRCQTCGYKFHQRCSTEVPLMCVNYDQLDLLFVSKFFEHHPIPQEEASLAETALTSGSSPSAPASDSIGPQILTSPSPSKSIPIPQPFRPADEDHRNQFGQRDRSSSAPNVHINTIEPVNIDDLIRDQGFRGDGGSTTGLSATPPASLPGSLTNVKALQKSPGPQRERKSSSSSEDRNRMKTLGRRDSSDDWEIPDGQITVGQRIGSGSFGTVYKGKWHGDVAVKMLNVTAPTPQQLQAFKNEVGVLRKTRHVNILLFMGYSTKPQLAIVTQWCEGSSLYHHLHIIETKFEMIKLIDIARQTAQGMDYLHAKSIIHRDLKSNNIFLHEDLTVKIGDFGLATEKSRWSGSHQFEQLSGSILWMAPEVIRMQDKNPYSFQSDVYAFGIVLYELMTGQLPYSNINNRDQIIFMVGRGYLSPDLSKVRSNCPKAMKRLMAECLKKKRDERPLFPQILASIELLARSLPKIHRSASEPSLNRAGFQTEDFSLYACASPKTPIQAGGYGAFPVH
In general terms: TR-FRET usually uses a lanthanide donor and a delayed reading to cut background.

The test system of a further assay is A375 cells. Kind of assay: Cell proliferation assay (CellTiter-Glo), A375 cell growth. Type of assay: cell-based. The following applies: 3-day treatment. As to the method:
Cell proliferation assay: A375, Colo-205, Calu-6, and SW-480 cells were purchased from American Type Culture Collection (USA). All cells were cultured in the recommended medium and serum concentration. Cells were maintained at 37° C. in a humidified atmosphere with 5% CO2. For cell proliferation assay, cells were seeded in 96-well pates at a density of 1,000 to 5,000 cells per well and cultured overnight at 37° C. in a medium supplemented with 5-10% FBS. On the next day, the test articles at various concentrations or vehicle control (1% DMSO) were added into cell culture. After 3-day treatment, the growth of cells was assayed by the CellTiter-Glo® Luminestceaent Cell Viability Assay (Promega). IC50 value was calculated using GraphPad Prism by plotting the logarithm of the concentration versus percent inhibition of cell growth.
On the technique in general: Cellular ATP, detected with luciferase, serves as a proxy for viable cell number.

In general, IC50 refers to the concentration that gives 50% inhibition. Take `COC(=O)N[C@@H](C)CNc1nccc(C2=C(c3cccc(NS(=O)(=O)c4c(F)cccc4F)c3F)C(=O)C(C)(C)O2)n1` [Example 2]: the IC50 on BRAF^V600E is 97 nM; in the assay on A375 cells (Homo sapiens, A-375, 72 h), 630 nM.

`CC1(C)OC(c2ccnc(NCCC#N)n2)=C(c2cccc(NS(=O)(=O)c3c(F)cccc3F)c2F)C1=O` [Example 3]: the IC50 was 13 nM at BRAF^V600E and 470 nM in the assay with A375 cells (Homo sapiens, A-375, 72 h).

For the compound `Nc1nccc(C2=C(c3cccc(NS(=O)(=O)c4c(F)cccc4F)c3F)C(=O)C3(CCCC3)O2)n1` [Example 4], the IC50 in the assay on A375 cells (Homo sapiens, A-375, 72 h) turned out to be 510 nM.

Take `CC(C)CC1(C)OC(c2ccnc(N)n2)=C(c2cccc(NS(=O)(=O)c3c(F)cccc3F)c2F)C1=O` (stereo not drawn) [Example 5]: the IC50 at BRAF^V600E was 92 nM; in the assay on A375 cells (Homo sapiens, A-375, 72 h) it was 2300 nM.

As to `CC(C)CC1(C)OC(c2ccnc(NCCC#N)n2)=C(c2cccc(NS(=O)(=O)c3c(F)cccc3F)c2F)C1=O` (stereo not drawn) [Example 6], the IC50 was determined as 9.6 nM on BRAF^V600E and 12000 nM with A375 cells (Homo sapiens, A-375, 72 h).

On to `COC(=O)N[C@@H](C)CNc1nccc(C2=C(c3cccc(NS(=O)(=O)c4c(F)cccc4F)c3F)C(=O)C(C)(CC(C)C)O2)n1` (stereo partly drawn) [Example 7], for which the IC50 on BRAF^V600E was 27 nM; in the assay on A375 cells (Homo sapiens, A-375, 72 h) it was 870 nM.

As to `CC(C)CC1(C)OC(c2ccnc(NCc3nccs3)n2)=C(c2cccc(NS(=O)(=O)c3c(F)cccc3F)c2F)C1=O` (stereo not drawn) [Example 8], the IC50 stood at 260 nM at BRAF^V600E and 27000 nM in the assay on A375 cells (Homo sapiens, A-375, 72 h).

As for `CC(C)CC1(C)OC(c2ccnc(NC[C@@H]3CCCN3)n2)=C(c2cccc(NS(=O)(=O)c3c(F)cccc3F)c2F)C1=O` (stereo partly drawn) [Example 9], the IC50 on BRAF^V600E came out at 2000 nM.

Consider `CC(C)CC1(C)OC(c2ccnc(NCC3CCCO3)n2)=C(c2cccc(NS(=O)(=O)c3c(F)cccc3F)c2F)C1=O` (stereo not drawn) [Example 10], for which the IC50 on BRAF^V600E is 750 nM.

For the compound `CC1(C)OC(c2ccnc(N)n2)=C(c2cc(Cl)cc(NS(=O)(=O)c3c(F)cccc3F)c2F)C1=O` [Example 11], the IC50 with A375 cells (Homo sapiens, A-375, 72 h) amounted to 18 nM.

Regarding `CC1(C)OC(c2ccnc(N)n2)=C(c2cc(Cl)cc(NS(=O)(=O)c3cc(F)ccc3F)c2F)C1=O` [Example 12], the IC50 was 0.6 nM at BRAF^V600E and 1.4 nM with A375 cells (Homo sapiens, A-375, 72 h).

As for `CC1(C)OC(c2ccnc(N)n2)=C(c2cc(Cl)cc(NS(=O)(=O)c3ccc(F)cc3F)c2F)C1=O` [Example 13], the IC50 with A375 cells (Homo sapiens, A-375, 72 h) turned out to be 350 nM.

As for `CC1(C)OC(c2ccnc(N)n2)=C(c2cc(Cl)cc(NS(=O)(=O)c3cccc(F)c3)c2F)C1=O` [Example 14], the half-maximal inhibitory concentration (IC50) at BRAF^V600E was 1.2 nM; with A375 cells (Homo sapiens, A-375, 72 h), 120 nM.

`CC1(C)OC(c2ccnc(N)n2)=C(c2cc(Cl)cc(NS(=O)(=O)c3ccccc3F)c2F)C1=O` [Example 15]: the IC50 at BRAF^V600E is 2.5 nM; in the assay on A375 cells (Homo sapiens, A-375, 72 h), 110 nM.

For the compound `CCCS(=O)(=O)Nc1cc(Cl)cc(C2=C(c3ccnc(N)n3)OC(C)(CC(C)C)C2=O)c1F` (stereo not drawn) [Example 16], the IC50 at BRAF^V600E was found to be 70 nM; in the assay with A375 cells (Homo sapiens, A-375, 72 h), 250 nM.

Turning to `Nc1nccc(C2=C(c3cccc(NS(=O)(=O)c4c(F)cccc4F)c3Cl)C(=O)C3(CCCC3)O2)n1` [Example 17], the IC50 on BRAF^V600E is 3.7 nM; with A375 cells (Homo sapiens, A-375, 72 h), 150 nM.

`Nc1nccc(C2=C(c3cc(Cl)cc(NS(=O)(=O)c4c(F)cccc4F)c3Cl)C(=O)C3(CCCC3)O2)n1` [Example 18]: the IC50 at BRAF^V600E came out at 2.4 nM; in the assay with A375 cells (Homo sapiens, A-375, 72 h) it was 7 nM.

For the compound `CC(C)CC1(C)OC(c2ccnc(N)n2)=C(c2cc(Cl)cc(NS(=O)(=O)c3c(F)cccc3F)c2F)C1=O` (stereo not drawn) [Example 19], the half-maximal inhibitory concentration (IC50) turned out to be 27 nM at BRAF^V600E and 41 nM with A375 cells (Homo sapiens, A-375, 72 h).

As for `CC(C)CC1(C)OC(c2ccnc(NCCC#N)n2)=C(c2cc(Cl)cc(NS(=O)(=O)c3c(F)cccc3F)c2F)C1=O` (stereo not drawn) [Example 20], the IC50 at BRAF^V600E stood at 29 nM; in the assay on A375 cells (Homo sapiens, A-375, 72 h), 160 nM.

On to `CC1(C)OC(c2ccnc(NCCC#N)n2)=C(c2cc(Cl)cc(NS(=O)(=O)c3c(F)cccc3F)c2F)C1=O` [Example 21], for which the IC50 was determined as 2.5 nM at BRAF^V600E and 200 nM with A375 cells (Homo sapiens, A-375, 72 h).

On to `COC(=O)N[C@@H](C)CNc1nccc(C2=C(c3cc(Cl)cc(NS(=O)(=O)c4cc(F)ccc4F)c3F)C(=O)C(C)(C)O2)n1` [Example 22], for which the IC50 on BRAF^V600E was determined as 50 nM; with A375 cells (Homo sapiens, A-375, 72 h) it was 180 nM.

With `CC1(C)OC(c2ccnc(NCCC#N)n2)=C(c2cc(Cl)cc(NS(=O)(=O)c3cc(F)ccc3F)c2F)C1=O` [Example 23], the IC50 on BRAF^V600E worked out at 13 nM; in the assay on A375 cells (Homo sapiens, A-375, 72 h) it was 51 nM.

In the case of `C[C@H](O)CNc1nccc(C2=C(c3cc(Cl)cc(NS(=O)(=O)c4cc(F)ccc4F)c3F)C(=O)C(C)(C)O2)n1` [Example 24], the IC50 worked out at 24 nM at BRAF^V600E and 410 nM in the assay with A375 cells (Homo sapiens, A-375, 72 h).

As for `CC1(C)OC(c2ccnc(NCCO)n2)=C(c2cc(Cl)cc(NS(=O)(=O)c3cc(F)ccc3F)c2F)C1=O` [Example 25], the IC50 on BRAF^V600E worked out at 11 nM; with A375 cells (Homo sapiens, A-375, 72 h), 160 nM.

For the compound `COCCNc1nccc(C2=C(c3cc(Cl)cc(NS(=O)(=O)c4cc(F)ccc4F)c3F)C(=O)C(C)(C)O2)n1` [Example 26], the IC50 on BRAF^V600E was 50 nM; in the assay with A375 cells (Homo sapiens, A-375, 72 h) it was 260 nM.

In the case of `CCNc1nccc(C2=C(c3cc(Cl)cc(NS(=O)(=O)c4cc(F)ccc4F)c3F)C(=O)C(C)(C)O2)n1` [Example 27], the IC50 was determined as 2.8 nM on BRAF^V600E and 320 nM with A375 cells (Homo sapiens, A-375, 72 h).

As for `Nc1nccc(C2=C(c3cc(Cl)cc(NS(=O)(=O)c4cc(F)ccc4F)c3F)C(=O)C3(CCCC3)O2)n1` [Example 28], the IC50 worked out at 2.6 nM at BRAF^V600E and 11 nM with A375 cells.

Regarding `Nc1nccc(C2=C(c3cc(Cl)cc(NS(=O)(=O)c4c(F)cccc4F)c3F)C(=O)C3(CCCC3)O2)n1` [Example 29], the values for the IC50 at BRAF^V600E and with A375 cells were 1.3 nM and 18 nM, respectively.
